Measured values taken from PMC7488503 (Acta Pharmaceutica Sinica. B, 2020).

Tests used:
[1] = molecular target: VEGFR3 (Homo sapiens, UniProt P35916); assay: Z′-LYTE kinase inhibition assay
[2] = test system: phosphorylation of PDGFRβ and ERK; assay: Western blot, PDGF/PDGFRβ/ERK signalling in HBVPs; format: cell-based, human; conditions: 0.5 and 5.0 μmol/L; induced by 50 ng/mL PDGF-BB in HBVPs
[3] = test system: CT26 colon adenocarcinoma cells; assay: Tumor xenograft model in transgenic zebrafish; format: in vivo; conditions: 0.5 and 2.0 μmol/L in fish water, 7 days
[4] = molecular target: GSK3β (Homo sapiens, UniProt P49841); assay: Z′-LYTE kinase inhibition assay
[5] = molecular target: EphA2 (Homo sapiens, UniProt P29317); assay: Z′-LYTE kinase inhibition assay
[6] = test system: phosphorylation of VEGFR2 and ERK; assay: Western blot, VEGF/VEGFR2/ERK signalling in HUVECs; format: cell-based, human; conditions: 5.0 μmol/L; induced by 50 ng/mL hVEGF 165 in HUVECs; P < 0.01
[7] = molecular target: CAMK2α (Homo sapiens, UniProt Q9UQM7); assay: Z′-LYTE kinase inhibition assay
[8] = molecular target: MAPKAPK2 (Homo sapiens, UniProt P49137); assay: Z′-LYTE kinase inhibition assay
[9] = Pharmacokinetic study in rats; format: in vivo; conditions: both, Sprague-Dawley, rat, plasma
[10] = molecular target: CDK2 (Homo sapiens, UniProt P24941); assay: Z′-LYTE kinase inhibition assay
[11] = molecular target: SRC (Homo sapiens, UniProt P12931); assay: Z′-LYTE kinase inhibition assay
[12] = molecular target: MAP4K4 (Homo sapiens, UniProt O95819); assay: Z′-LYTE kinase inhibition assay
[13] = test system: phosphorylation of FGFR1‒4 and ERK; assay: Western blot, FGF/FGFRs/ERK signalling in HUVECs; format: cell-based, human; conditions: 5.0 μmol/L; induced by 50 ng/mL bFGF in HUVECs; P < 0.01
[14] = molecular target: FGFR2 (Homo sapiens, UniProt P21802); assay: Z′-LYTE kinase inhibition assay
[15] = molecular target: JNK1 (Homo sapiens, UniProt P45983); assay: Z′-LYTE kinase inhibition assay
[16] = molecular target: PKA (Homo sapiens, UniProt P17612); assay: Z′-LYTE kinase inhibition assay
[17] = test system: A549 lung cancer xenograft; assay: A549 lung cancer subcutaneous xenograft model; format: in vivo, Balb/c nude mice; conditions: for T/C / TGI: Day 21; for Tumor volume at Day 21 / area of CD31 (tumor micro-vessel density, IHC): mean ± SEM; for area of CD31 (tumor micro-vessel density, IHC): n = 3, control 3.38 ± 0.49
[18] = test system: NCI-H520 lung cancer xenograft; assay: NCI-H520 lung cancer subcutaneous xenograft model; format: in vivo, Balb/c nude mice; conditions: for T/C / TGI: Day 21; for Tumor volume at Day 21 / area of CD31 (tumor micro-vessel density, IHC): mean ± SEM; for area of CD31 (tumor micro-vessel density, IHC): n = 3, control 4.96 ± 0.62
[19] = molecular target: TAOK2 (Homo sapiens, UniProt Q9UL54); assay: Z′-LYTE kinase inhibition assay
[20] = Pharmacokinetic study in beagles; format: in vivo; conditions: both, beagle, dog, plasma
[21] = test system: HUVECs; assay: HUVEC tube formation assay; format: cell-based, human; conditions: induced by 50 ng/mL hVEGF-165; 0.5 and 5.0 μmol/L; vs. hVEGF-165 control, P < 0.01
[22] = molecular target: CHK1 (Homo sapiens, UniProt O14757); assay: Z′-LYTE kinase inhibition assay
[23] = molecular target: DYRK3 (Homo sapiens, UniProt O43781); assay: Z′-LYTE kinase inhibition assay
[24] = test system: HUVECs; conditions: 5.0 μmol/L (P < 0.05), 50.0 μmol/L (P < 0.001) vs. hVEGF-165 treated control
[25] = molecular target: MST4 (Homo sapiens, UniProt Q9P289); assay: Z′-LYTE kinase inhibition assay
[26] = test system: HUVECs; assay: Transwell invasion assay; format: cell-based, human; conditions: driven by 50 ng/mL hVEGF-165; dose-dependent; 0.5 μmol/L P < 0.01; 5.0 and 50.0 μmol/L P < 0.001
[27] = test system: HBVPs; assay: PDGF-BB-induced HBVPs proliferation; format: cell-based; conditions: Homo sapiens, 48 h, read-out: IC50 HBVPs
[28] = molecular target: CK1α (Homo sapiens, UniProt P48729); assay: Z′-LYTE kinase inhibition assay
[29] = molecular target: p38α (Homo sapiens, UniProt Q16539); assay: Z′-LYTE kinase inhibition assay
[30] = test system: patient-derived tumor (LI-03-0020) xenograft; assay: Liver cancer patient-derived tumor xenograft; format: in vivo, Balb/c nude mice
[31] = molecular target: PDK1 (Homo sapiens, UniProt O15530); assay: Z′-LYTE kinase inhibition assay
[32] = H&E staining of vital organs of treated mice; format: in vivo, nude mice; conditions: 100 and 200 mg/kg, p.o., QD × 3 weeks
[33] = molecular target: JAK2 (Homo sapiens, UniProt O60674); assay: Z′-LYTE kinase inhibition assay
[34] = test system: HUVECs; assay: VEGF-induced HUVECs proliferation; format: cell-based; conditions: Homo sapiens, HUVEC, 72 h, read-out: IC50 HUVECs
[35] = molecular target: VEGFR2 (Homo sapiens, UniProt P35968); assay: Z′-LYTE kinase inhibition assay
[36] = molecular target: FGFR1 (Homo sapiens, UniProt P11362); assay: Z′-LYTE kinase inhibition assay
[37] = molecular target: PDGFRβ (Homo sapiens, UniProt P09619); assay: Z′-LYTE kinase inhibition assay
[38] = liver cancer PDX model, 200 mg/kg oral QD, Day 21

Sequence of VEGFR2 (P35968 20-1356): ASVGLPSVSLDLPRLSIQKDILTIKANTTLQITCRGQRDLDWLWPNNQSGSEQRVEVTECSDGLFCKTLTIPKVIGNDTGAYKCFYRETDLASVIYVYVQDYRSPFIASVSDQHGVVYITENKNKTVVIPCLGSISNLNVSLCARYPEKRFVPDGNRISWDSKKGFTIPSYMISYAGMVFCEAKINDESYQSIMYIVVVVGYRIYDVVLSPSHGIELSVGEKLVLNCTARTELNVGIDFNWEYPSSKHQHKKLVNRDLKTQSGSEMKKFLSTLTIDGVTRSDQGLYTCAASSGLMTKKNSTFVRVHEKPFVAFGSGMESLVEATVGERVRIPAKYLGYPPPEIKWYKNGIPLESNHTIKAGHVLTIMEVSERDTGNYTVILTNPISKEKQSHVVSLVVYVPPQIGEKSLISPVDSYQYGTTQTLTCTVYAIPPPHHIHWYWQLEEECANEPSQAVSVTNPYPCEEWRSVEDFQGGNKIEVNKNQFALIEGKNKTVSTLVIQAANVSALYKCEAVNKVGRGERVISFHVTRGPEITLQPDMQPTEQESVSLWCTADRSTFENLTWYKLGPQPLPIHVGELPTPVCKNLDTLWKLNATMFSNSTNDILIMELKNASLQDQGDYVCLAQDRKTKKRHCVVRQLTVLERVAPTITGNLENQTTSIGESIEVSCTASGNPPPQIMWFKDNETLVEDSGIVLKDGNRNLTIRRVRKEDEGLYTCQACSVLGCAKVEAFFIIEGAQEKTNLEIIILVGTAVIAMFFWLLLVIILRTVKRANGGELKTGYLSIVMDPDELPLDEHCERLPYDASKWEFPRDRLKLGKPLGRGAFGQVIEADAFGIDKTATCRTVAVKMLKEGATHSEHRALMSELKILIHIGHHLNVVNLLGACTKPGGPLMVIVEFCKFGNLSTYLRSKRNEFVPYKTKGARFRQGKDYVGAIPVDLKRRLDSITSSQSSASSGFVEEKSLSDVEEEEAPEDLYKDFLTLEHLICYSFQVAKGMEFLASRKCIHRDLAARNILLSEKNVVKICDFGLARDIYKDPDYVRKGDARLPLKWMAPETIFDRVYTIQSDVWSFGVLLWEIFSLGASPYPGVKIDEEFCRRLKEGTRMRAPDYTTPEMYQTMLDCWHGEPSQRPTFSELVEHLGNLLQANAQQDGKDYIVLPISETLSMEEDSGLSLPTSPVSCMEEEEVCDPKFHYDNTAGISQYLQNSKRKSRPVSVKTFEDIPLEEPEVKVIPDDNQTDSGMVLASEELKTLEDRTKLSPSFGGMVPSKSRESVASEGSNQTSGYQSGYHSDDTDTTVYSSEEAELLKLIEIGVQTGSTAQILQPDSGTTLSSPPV
Sequence of TAOK2 (Q9UL54 whole entry): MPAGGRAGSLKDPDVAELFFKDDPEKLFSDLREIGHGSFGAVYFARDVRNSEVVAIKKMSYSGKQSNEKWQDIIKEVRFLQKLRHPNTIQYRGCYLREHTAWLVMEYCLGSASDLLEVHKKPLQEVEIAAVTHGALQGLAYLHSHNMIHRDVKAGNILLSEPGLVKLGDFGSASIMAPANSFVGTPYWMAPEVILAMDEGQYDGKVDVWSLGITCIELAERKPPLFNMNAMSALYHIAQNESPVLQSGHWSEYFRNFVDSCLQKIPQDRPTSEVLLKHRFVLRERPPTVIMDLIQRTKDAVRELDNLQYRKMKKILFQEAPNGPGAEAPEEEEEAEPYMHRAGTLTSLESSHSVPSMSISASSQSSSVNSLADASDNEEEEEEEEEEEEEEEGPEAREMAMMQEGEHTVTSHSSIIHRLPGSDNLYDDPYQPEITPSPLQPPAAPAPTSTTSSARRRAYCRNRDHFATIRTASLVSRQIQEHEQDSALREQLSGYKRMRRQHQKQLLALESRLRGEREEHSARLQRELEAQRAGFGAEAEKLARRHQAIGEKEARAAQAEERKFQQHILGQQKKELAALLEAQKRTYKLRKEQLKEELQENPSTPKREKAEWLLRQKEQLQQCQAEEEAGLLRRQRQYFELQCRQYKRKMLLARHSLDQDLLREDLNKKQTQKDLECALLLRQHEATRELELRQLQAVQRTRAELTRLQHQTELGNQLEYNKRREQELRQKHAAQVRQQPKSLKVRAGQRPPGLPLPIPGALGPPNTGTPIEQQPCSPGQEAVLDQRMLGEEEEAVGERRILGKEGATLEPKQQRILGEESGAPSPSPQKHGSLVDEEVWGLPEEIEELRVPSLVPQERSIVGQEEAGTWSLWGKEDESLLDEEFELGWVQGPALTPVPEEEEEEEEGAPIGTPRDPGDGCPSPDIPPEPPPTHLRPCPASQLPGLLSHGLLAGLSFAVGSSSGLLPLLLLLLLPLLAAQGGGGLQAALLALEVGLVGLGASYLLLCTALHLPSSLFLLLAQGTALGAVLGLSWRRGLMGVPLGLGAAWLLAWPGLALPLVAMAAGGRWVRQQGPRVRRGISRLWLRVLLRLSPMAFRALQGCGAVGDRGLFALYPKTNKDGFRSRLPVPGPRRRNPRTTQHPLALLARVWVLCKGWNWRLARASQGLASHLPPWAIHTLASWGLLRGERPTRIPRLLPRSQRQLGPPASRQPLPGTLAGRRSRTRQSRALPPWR
Sequence of JAK2 (O60674 whole entry): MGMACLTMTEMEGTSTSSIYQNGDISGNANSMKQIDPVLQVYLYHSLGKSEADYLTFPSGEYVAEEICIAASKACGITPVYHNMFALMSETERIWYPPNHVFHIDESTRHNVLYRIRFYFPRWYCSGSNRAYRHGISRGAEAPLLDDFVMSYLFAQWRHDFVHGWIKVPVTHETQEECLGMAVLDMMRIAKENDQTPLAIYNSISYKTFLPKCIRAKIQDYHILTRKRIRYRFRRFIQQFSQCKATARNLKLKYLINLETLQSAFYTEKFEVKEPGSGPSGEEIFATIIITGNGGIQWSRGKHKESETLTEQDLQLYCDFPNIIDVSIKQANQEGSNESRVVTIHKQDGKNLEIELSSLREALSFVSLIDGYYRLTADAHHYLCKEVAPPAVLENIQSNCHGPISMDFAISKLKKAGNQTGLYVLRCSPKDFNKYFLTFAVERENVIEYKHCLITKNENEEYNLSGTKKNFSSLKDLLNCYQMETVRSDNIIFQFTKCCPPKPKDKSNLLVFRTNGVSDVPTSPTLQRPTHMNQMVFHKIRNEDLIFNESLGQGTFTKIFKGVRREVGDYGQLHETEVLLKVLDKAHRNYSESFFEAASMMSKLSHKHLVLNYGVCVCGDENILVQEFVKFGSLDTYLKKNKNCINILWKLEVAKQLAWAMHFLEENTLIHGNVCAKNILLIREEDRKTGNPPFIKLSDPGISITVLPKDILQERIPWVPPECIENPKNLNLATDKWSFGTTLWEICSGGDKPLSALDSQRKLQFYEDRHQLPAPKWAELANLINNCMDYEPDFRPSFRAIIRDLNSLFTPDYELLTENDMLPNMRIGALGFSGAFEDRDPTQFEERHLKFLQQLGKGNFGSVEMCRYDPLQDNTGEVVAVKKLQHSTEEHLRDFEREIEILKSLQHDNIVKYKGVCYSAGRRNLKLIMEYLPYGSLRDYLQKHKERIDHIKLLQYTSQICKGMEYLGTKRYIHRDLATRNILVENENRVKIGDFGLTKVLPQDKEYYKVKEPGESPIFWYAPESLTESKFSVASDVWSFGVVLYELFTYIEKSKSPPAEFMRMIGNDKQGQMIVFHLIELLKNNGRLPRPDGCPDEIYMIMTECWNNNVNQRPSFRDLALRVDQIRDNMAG
Sequence of VEGFR3 (P35916 25-1363): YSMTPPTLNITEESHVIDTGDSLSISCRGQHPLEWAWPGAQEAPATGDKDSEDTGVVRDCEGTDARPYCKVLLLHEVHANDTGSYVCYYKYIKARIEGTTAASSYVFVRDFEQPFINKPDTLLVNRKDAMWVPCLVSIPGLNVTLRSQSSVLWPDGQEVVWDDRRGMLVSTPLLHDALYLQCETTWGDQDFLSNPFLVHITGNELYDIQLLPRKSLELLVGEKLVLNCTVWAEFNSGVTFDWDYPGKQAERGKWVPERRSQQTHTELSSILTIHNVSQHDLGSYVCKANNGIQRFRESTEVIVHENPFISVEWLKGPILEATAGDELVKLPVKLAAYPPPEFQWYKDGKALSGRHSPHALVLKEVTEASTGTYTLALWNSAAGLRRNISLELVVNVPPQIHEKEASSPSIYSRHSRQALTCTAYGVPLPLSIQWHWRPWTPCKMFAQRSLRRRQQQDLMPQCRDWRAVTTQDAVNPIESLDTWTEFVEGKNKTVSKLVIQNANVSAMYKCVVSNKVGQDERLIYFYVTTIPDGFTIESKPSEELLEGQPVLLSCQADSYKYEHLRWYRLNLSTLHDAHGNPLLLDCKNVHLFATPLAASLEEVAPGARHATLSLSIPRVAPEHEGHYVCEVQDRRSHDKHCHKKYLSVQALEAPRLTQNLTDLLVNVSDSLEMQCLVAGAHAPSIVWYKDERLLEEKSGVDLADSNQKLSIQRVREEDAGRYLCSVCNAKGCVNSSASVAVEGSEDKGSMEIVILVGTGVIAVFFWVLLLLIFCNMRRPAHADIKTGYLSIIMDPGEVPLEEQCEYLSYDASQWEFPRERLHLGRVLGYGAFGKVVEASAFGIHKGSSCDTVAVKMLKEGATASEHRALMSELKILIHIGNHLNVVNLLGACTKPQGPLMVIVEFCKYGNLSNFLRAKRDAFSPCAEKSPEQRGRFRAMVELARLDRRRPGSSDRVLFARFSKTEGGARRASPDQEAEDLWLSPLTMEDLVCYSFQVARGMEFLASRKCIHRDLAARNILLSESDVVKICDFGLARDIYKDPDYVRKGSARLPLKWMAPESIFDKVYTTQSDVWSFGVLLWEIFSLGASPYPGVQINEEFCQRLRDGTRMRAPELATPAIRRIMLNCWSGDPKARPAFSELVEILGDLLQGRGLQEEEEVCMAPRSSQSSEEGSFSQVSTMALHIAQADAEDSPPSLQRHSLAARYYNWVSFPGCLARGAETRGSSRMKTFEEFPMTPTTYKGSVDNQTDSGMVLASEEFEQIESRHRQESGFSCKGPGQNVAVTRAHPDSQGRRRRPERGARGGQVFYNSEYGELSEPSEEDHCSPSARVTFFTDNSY

COc1cc2nccc(Oc3ccc(NC(=S)NC4CC4)c(Cl)c3F)c2cc1C(N)=O [WXFL-152, 4-(3-Chloro-4-(3-cyclopropylthioureido)-2-fluorophenoxy)-7-methoxyquinoline-6-carboxamide]
IC50 [1]: 0.0085 µM
phosphorylation of PDGFRβ and ERK [2]: significantly blocked
tumor angiogenesis and tumor size in zebrafish xenograft [3]: few tumors exhibiting angiogenesis and small tumors
IC50 [4]: > 10 µM
IC50 [5]: > 3.33 µM
phosphorylation of VEGFR2 and ERK [6]: significantly suppressed
IC50 [7]: > 10 µM
IC50 [8]: > 10 µM
AUC(0-inf) ([9]; iv, 3 mg/kg): 35.2 ± 8.3 µM·h
AUC(0-t) ([9]; iv, 3 mg/kg): 35 ± 8.2 µM·h
Cmax ([9]; iv, 3 mg/kg): 40.4 ± 3 µM
Vd ([9]; iv, 3 mg/kg): 0.26 ± 0.05 L/kg
clearance ([9]; iv, 3 mg/kg): 3.24 ± 0.81 mL/min/kg
half-life ([9]; iv, 3 mg/kg): 1.18 ± 0.18 h
AUC(0-inf) ([9]; po, 15 mg/kg): 77.7 ± 39.6 µM·h
AUC(0-t) ([9]; po, 15 mg/kg): 74.6 ± 36.3 µM·h
Cmax ([9]; po, 15 mg/kg): 26 ± 13.3 µM
Tmax ([9]; po, 15 mg/kg): 0.58 ± 0.2 h
bioavailability ([9]; po, 15 mg/kg): 42%
half-life ([9]; po, 15 mg/kg): 2.21 ± 0.39 h
AUC(0-inf) ([9]; po, 50 mg/kg): 110 ± 84.9 µM·h
AUC(0-t) ([9]; po, 50 mg/kg): 110 ± 84.9 µM·h
Cmax ([9]; po, 50 mg/kg): 32.3 ± 11.3 µM
Tmax ([9]; po, 50 mg/kg): 0.54 ± 0.25 h
bioavailability ([9]; po, 50 mg/kg): 18.7%
half-life ([9]; po, 50 mg/kg): 2 ± 0.55 h
AUC(0-inf) ([9]; po, 50 mg/kg/day): 151 ± 63.5 µM·h
AUC(0-t) ([9]; po, 50 mg/kg/day): 160 ± 60.3 µM·h
Cmax at 7 days ([9]; po, 50 mg/kg/day): 46.5 ± 13.9 µM
Tmax at 7 days ([9]; po, 50 mg/kg/day): 1.42 ± 0.67 h
half-life at 7 days ([9]; po, 50 mg/kg/day): 2.17 ± 0.55 h
AUC(0-inf) ([9]; po, 150 mg/kg): 233 ± 158 µM·h
AUC(0-t) ([9]; po, 150 mg/kg): 232 ± 158 µM·h
Cmax ([9]; po, 150 mg/kg): 48.7 ± 9.5 µM
Tmax ([9]; po, 150 mg/kg): 1.58 ± 2.26 h
bioavailability ([9]; po, 150 mg/kg): 13%
half-life ([9]; po, 150 mg/kg): 2.54 ± 0.8 h
IC50 [10]: > 10 µM
IC50 [11]: 2.65 µM
IC50 [12]: 0.079 µM
phosphorylation of FGFR1‒4 and ERK [13]: significantly inhibited
IC50 [14]: 0.0155 µM
IC50 [15]: > 10 µM
IC50 [16]: > 10 µM
T/C ([17]; 50 mg/kg p.o. QD): 29%
TGI ([17]; 50 mg/kg p.o. QD): 78%
Tumor volume at Day 21 ([17]; 50 mg/kg p.o. QD): 430 ± 42 mm^3
area of CD31 (tumor micro-vessel density, IHC) ([17]; 50 mg/kg): 2.20 ± 0.29
T/C ([17]; 100 mg/kg p.o. QD): 27%
TGI ([17]; 100 mg/kg p.o. QD): 80%
Tumor volume at Day 21 ([17]; 100 mg/kg p.o. QD): 401 ± 38 mm^3
area of CD31 (tumor micro-vessel density, IHC) ([17]; 100 mg/kg): 1.27 ± 0.48
T/C ([18]; 50 mg/kg p.o. QD): 58%
TGI ([18]; 50 mg/kg p.o. QD): 51%
Tumor volume at Day 21 ([18]; 50 mg/kg p.o. QD): 704 ± 107 mm^3
area of CD31 (tumor micro-vessel density, IHC) ([18]; 50 mg/kg): 1.96 ± 0.05
T/C ([18]; 100 mg/kg p.o. QD): 36%
TGI ([18]; 100 mg/kg p.o. QD): 72%
Tumor volume at Day 21 ([18]; 100 mg/kg p.o. QD): 478 ± 85 mm^3
area of CD31 (tumor micro-vessel density, IHC) ([18]; 100 mg/kg): 1.83 ± 0.26
IC50 [19]: > 10 µM
AUC(0-inf) ([20]; iv, 2 mg/kg): 5.13 ± 0.9 µM·h
AUC(0-t) ([20]; iv, 2 mg/kg): 5.1 ± 0.9 µM·h
Cmax ([20]; iv, 2 mg/kg): 4.36 ± 0.96 µM
Vd ([20]; iv, 2 mg/kg): 1.45 ± 0.33 L/kg
clearance ([20]; iv, 2 mg/kg): 14.5 ± 2.74 mL/min/kg
half-life ([20]; iv, 2 mg/kg): 4.91 ± 2.18 h
AUC(0-inf) ([20]; po, 10 mg/kg): 20.2 ± 20.2 µM·h
AUC(0-t) ([20]; po, 10 mg/kg): 19.6 ± 20.2 µM·h
Cmax ([20]; po, 10 mg/kg): 6.28 ± 6.57 µM
Tmax ([20]; po, 10 mg/kg): 1.25 ± 0.612 h
bioavailability ([20]; po, 10 mg/kg): 76.9%
half-life ([20]; po, 10 mg/kg): 5.77 ± 2.17 h
AUC(0-inf) ([20]; po, 30 mg/kg): 51.8 ± 62.3 µM·h
AUC(0-t) ([20]; po, 30 mg/kg): 50 ± 58.8 µM·h
Cmax ([20]; po, 30 mg/kg): 16.2 ± 16.5 µM
Tmax ([20]; po, 30 mg/kg): 0.917 ± 0.585 h
bioavailability ([20]; po, 30 mg/kg): 65.4%
half-life ([20]; po, 30 mg/kg): 5.25 ± 1.03 h
AUC(0-inf) ([20]; po, 30 mg/kg/day): 37.9 ± 31.9 µM·h
AUC(0-t) ([20]; po, 30 mg/kg/day): 23.7 ± 16.1 µM·h
Cmax at 7 days ([20]; po, 30 mg/kg/day): 6.97 ± 5.26 µM
Tmax at 7 days ([20]; po, 30 mg/kg/day): 1.08 ± 0.736 h
half-life ([20]; po, 30 mg/kg/day): 12.3 ± 12.6 h
AUC(0-inf) ([20]; po, 100 mg/kg): 230 ± 51.5 µM·h
AUC(0-t) ([20]; po, 100 mg/kg): 199 ± 90.5 µM·h
Cmax ([20]; po, 100 mg/kg): 47.8 ± 20.8 µM
Tmax ([20]; po, 100 mg/kg): 2.33 ± 0.816 h
bioavailability ([20]; po, 100 mg/kg): 78%
half-life ([20]; po, 100 mg/kg): 2.99 ± 0.7 h
tube formation of HUVECs [21]: significantly suppressed
IC50 [22]: > 10 µM
IC50 [23]: > 10 µM
migration of HUVECs (wound healing) [24]: appreciably inhibited
IC50 [25]: > 10 µM
invasion of HUVECs [26]: significantly inhibited
IC50 [27]: 1.94 µM
IC50 [28]: > 10 µM
IC50 [29]: > 3.33 µM
area of CD31 (tumor micro-vessel density, IHC) ([30]; liver PDX model, 200 mg/kg, mean ± SEM, n = 3, control 0.30 ± 0.10): 0.19 ± 0.06
T/C [30, 38]: 35%
TGI [30, 38]: 76%
Tumor volume at Day 21 ([30]; liver cancer PDX model, 200 mg/kg oral QD, mean ± SEM): 334 ± 69 mm^3
IC50 [31]: > 10 µM
pathologic changes in heart, liver, spleen, lung and kidney (H&E) [32]: No significant pathologic changes
IC50 [33]: > 10 µM
IC50 [34]: 0.071 µM

COc1cc2nccc(Oc3ccc(NC(=S)NC4CC4)c(Cl)c3)c2cc1C(N)=O [WXFL-255, 4-(3-chloro-4-(3-cyclopropylthioureido)phenoxy)-7-methoxyquinoline-6-carboxamide]
IC50 [35]: 0.0094 µM
IC50 [36]: 0.188 µM
IC50 [37]: 0.143 µM
IC50 [34]: 0.0902 µM
